Laboratory results published in patent US12060388B2, “Cell-penetrating peptides and methods of use thereof” (priority 2018, dated 2024).
No end group written: not given here. *: point of attachment. Biotin = O=C1N[C@H]2[C@H](CS[C@H]2CCCCC(=O)*)N1

Experiments:
[1] = tested on: HPV16 PsV; test: HPV16 PsV infectivity in HeLa S3 cells with chemical inhibitors; format: cell-based; details: MOI of one, 48 h.p.i.
Experimental: 5×10^4 HeLa S3 or HaCaT cells in 12-well plates were incubated with PsVs at MOI of approximately one. The number of packaged reporter plasmids required to achieve this MOI as assessed by flow cytometry for reporter gene expression from wild-type PsV was quantified by qPCR, and an equivalent number of genomes in mutant PsV were used to infect cells. Approximately five-fold more virus was used to attain this MOI in HaCaT cells. Cells were analyzed by flow cytometry on a Stratedigm-12 flow cytometer to determine the fraction of cells displaying HcRed fluorescence 48 h.p.i. To measure dependence on retromer, 1×10^5 HeLa S3 cells in a 12-well plate were transfected […] to infection with 10 pmol siRNAs targeting Vps29 (Dharmacon, Lafayette, CO; #D-009764-03) or Vps35 (Dharmacon, #D-010894-01) by using RNAiMAX (Thermo Fisher, Waltham, MA, #13778100) according to manufacturer's protocol. Cells transfected with a 10 pmol RISC-free siRNA were used as a control. Forty-eight h.p.i., infectivity was measured by flow cytometry for reporter gene expression. […] Forty-eight h.p.i., infectivity was measured by flow cytometry for HcRed expression. […] Forty-eight h.p.i., infectivity was measured by flow cytometry for HcRed expression.

[2] = tested on: HPV16 PsV containing GFP11-tagged L2; test: Split GFP assay with aphidicolin, HaCaT/GFP1-10NES cells; format: cell-based; details: 6 μM, MOI of 2000, three h.p.i.
Experimental: FIG. 12A depicts HeLa S3 cells left untreated or treated with 6 μM aphidicolin. Twenty-four h later, cells were infected at MOI of one with wild-type HPV16 PsV or PsV containing L2-GFP11-CPP or L2-CPP-GFP11. Forty-eight h.p.i., the fraction of infected cells was determined by flow cytometry for HcRed fluorescence and normalized to untreated cells infected with wild-type HPV16 PsV. FIG. 12B depicts HaCaT/GFP1-10NES cells infected at an MOI of 2000 with wild-type HPV16 PsV or PsV containing GFP11-tagged L2 in the presence of absence of 6 μM aphidicolin. Three h.p.i., cells were examined by confocal microscopy for reconstituted GFP fluorescence. Fluorescence in individual cells (˜250 for each condition) is plotted from two independent experiments. […]
Generation of stable cell lines. […] Single cells were then plated in a 96-well plate, and monoclonal cell lines were isolated and tested by infection of HPV16-CPP-GFP11 PsV at ˜2000 MOI and monitoring fluorescence. […] Images were acquired with a Leica SP5 inverted fluorescence microscope to identify cell lines expressing cytoplasmic GFP1-10NES. […] Twenty-four hours later, live cells were examined by fluorescence microscopy. […] Twenty-four h later, live cells were examined by fluorescence microscopy. As expected, fluorescence with GFP11-CD8-CIMPR was reconstituted only when the GFP1-10 segment was luminal (FIG. 8F). […]

[3] = tested on: wild-type HPV16 pseudovirus; test: Peptide inhibition experiment with L2-C, HeLa cells; format: cell-based; details: 4 μg peptide, infectivity 48 hours later
Experimental: HeLa cells were treated at 37° C. with 4 μg L2-C, a peptide containing the HPV16 L2 retromer binding site and CPP or mock treated. B represents N terminal biotinylation and Am represents C-terminal amidation. Two hours later, the cells were infected for two hours at 37° C. with wild-type HPV16 pseudovirus. Cells were washed and medium was replenished with medium containing the peptide for 24 hours. Infectivity was tested 48 hours later by using flow cytometry to measure fluorescence of HcRed expressed from a plasmid encapsidated in the pseudovirus particle. Similar results were obtained in two independent experiments.
HeLa cells were left untreated or treated at 37° C. with 4 μg L2-C, a peptide containing the HPV16 L2 retromer binding site and CPP. The sequence of L2-C is as follows: B-[…]-Am, (SEQ ID NO: 533), where B represents N-terminal biotinylation and Am represents C-terminal amidation. Two hours later, the cells were infected for two hours at 37° C. with wild-type HPV16 pseudovirus. Cells were washed and medium was replenished with medium containing the peptide for 24 hours. Infectivity was tested 48 hours later by using flow cytometry to measure fluorescence of HcRed expressed from a reporter plasmid encapsidated in the pseudovirus particle, and normalized to infectivity of cells infected in the absence of peptide. Similar results were obtained in two independent experiments.

[4] = tested on: HaCaT cells; test: Modulation of CPP action by flanking sequences, GFP fusion proteins on HaCaT cells; format: cell-based, human
Experimental: Fusion proteins with various segments of the C-terminus of HPV16 or HPV5 L2 were added to HaCaT cells. The sequences used are as follows:
In some cases, various concentrations of fusion proteins were added to assess efficacy. In other cases, the pH of the culture medium was physiological pH 7 or adjusted to acidic pH 4 prior to peptide addition, or the cells were incubated with peptide at physiological temperature of 37° C. or at 30° C. Activity was assessed by confocal microscopy for intracellular fluorescence. In some experiments, cell surface fluorescence was extinguished by treatment with the membrane-impermeable fluorescence quencher, trypan blue.

[5] = target: T1, retromer (Vps35) (Homo sapiens, UniProt O75436+Q96QK1); test: Biotinylated peptide pull-down from HeLa S3 lysate, blot for Vps35; format: binding; details: streptavidin pull-down
T1 construct: endogenous in cells; host or cells: HeLa S3 lysate (RIPA-MOPS buffer)
Experimental: For peptide pull-down experiments, N-terminal biotinylated L2 peptides (sequences shown in FIG. 2A) were purchased from ABClonal Science (Woburn, MA) at >95% purity. L2 wild-type was dissolved initially in 30% acetic acid and DMSO (˜70 μl each), and then dissolved in sterile deionized water with 0.01% sodium azide. L2-6A, L2-3R and L2-DM were initially solubilized in a small amount of DMSO (˜70-80 μl) and then dissolved in sterile deionized water with 0.01% sodium azide. Peptide stocks (5 mg/ml) were aliquoted and stored at −20° C. HeLa S3 cells plated in six-well plates were lysed at ˜80% confluency with 500 μl RIPA-MOPS buffer (20 mM morpholinepropanesulfonic acid [pH 7.0], 150 mM NaCl, 1% Nonidet P-40, 1 mM EDTA, 1% deoxycholic acid, 0.1% sodium dodecyl sulfate [SDS]) supplemented with protease inhibitors (1×HALT protease and phosphatase inhibitor cocktail (Thermo Scientific, Waltham, MA; #78443)). The lysate was centrifuged at 14,000 rpm for 20 min, and the supernatant was incubated with 10 μg of a biotinylated peptide for two h at 4° C. Fifty μl of streptavidin agarose beads slurry (Pierce, Rockford, IL; #20349) was added, and the mixture was gently rocked for 45 min at 4° C. […] Samples were analyzed by SDS-PAGE and immunoblotting with antibody recognizing Vps35 (Abcam, Cambridge, MA; ab57632).

C[C@H](NC(=O)Cc1cc(F)cc(F)c1)C(=O)N[C@H]1N=C(c2ccccc2)c2ccccc2N(C)C1=O [XXI]
inhibition of wild-type and L2-Tat PsV infection ([1]; 250 nM, pretreated one h): near-complete inhibition

C[C@@]1(CO)[C@H](O)CC[C@@]2(C)[C@H]1CC[C@H]1C[C@@H]3C[C@@]12CC[C@]3(O)CO [aphidocolin, aphidicolin]
reconstituted GFP signal [2]: did not decrease the reconstituted GFP signal | effect on HPV infection ([1]; 6 μM, pretreated 24 h): inhibited infection

B-SPQYTIIADAGDFYLHPSYYMLRKRRKR-Am [L2-C]
inhibition of infection by HPV16 PsV [3]: dramatic inhibition of infection

His6-GFP-linker-IPVVIIHPHDSTGDFYLHPSLHRRKRKRKYL [GFP fusion protein with HPV5 C-terminus]
cell binding, temperature dependence ([4]; three hours, 30° C. or 37° C.): better at 30 °C than at 37 °C

His6-GFP-linker-PQYTIIADAGDFYLHPSYYMLRKRRKR [GFP-21P-CPP]
cell binding and entry at pH 7 ([4]; three hours at 37° C.): binds

His6-GFP-linker-PQYTIIADAGDFYLHPSYYMLRKRRKRLPYFFSDVSLAA [GFP-HPV16 L2]
cell binding and entry at pH 4 ([4]; three hours at 37° C., pH 4): well | cell binding and entry at pH 7 ([4]; three hours at 37° C.): poorly

His6-GFP-linker-RKRRKR
cell binding and entry at pH 7 ([4]; three hours at 37° C.): active in cell binding and internalization, but is not as efficient

L2-3R: N-terminal biotinylated C-terminal L2 peptide with the 3R mutation (Biotin-SPQYTIIADAGDFYLHPSYYMLRRR)
retromer binding of L2 peptide in vitro [5]: did not affect retromer binding
